Measurements as given in paper PMC8273083 (ACS infectious diseases, 2021).

Tests used:
[1] = target: TgDHOD-VSSM (Toxoplasma gondii, UniProt Q8MXD1); test: TgDHOD inhibition; type: biochemical
[2] = test system: RH-strain T. gondii; test: T. gondii growth inhibition, RH strain; type: cell-based; details: Toxoplasma gondii, read-out: EC50 vs RH (nM)
[3] = test system: T222P strain of T. gondii; test: microbe, parasite or virus in culture; type: cell-based, Toxoplasma gondii
[4] = test system: RH-strain T. gondii tachyzoites; test: In vivo efficacy, murine model of systemic; set-up: species or system CF-1 mice; details: 20 mg/kg orally once daily, in words

O=C1C(O)=C([C@H]2CC[C@H](c3ccc(Cl)cc3)CC2)C(=O)c2ccccc21 [ATV, atovaquone]
Ki [1]: 2720 nM

COc1cc2[nH]c3cc(Oc4ccc(OC(F)(F)F)cc4)ccc3c(=O)c2cc1F [Compound 27]
EC50 [2]: 0.63 nM | effect of the T222P mutation on potency ([3]; T222P versus RH strain, in words): confers resistance | EC50 ([3]; Toxoplasma gondii, read-out: EC50 vs T222P (nM)): 5.61 nM

CCc1nc(N)nc(N)c1-c1ccc(Cl)cc1 [pyrimethamine]
survival benefit [4]: no survival benefit
